# System: BJ
# Assay: Cytotoxicity against human BJ cells assessed as reduction in cell viability measured after 72 hrs by MTS assay
# Assay type: cell-based
# Conditions: not given
row,SMILES,IC50 [µM]
1,C=C(/C=C/c1ccccc1)[C@@H]1CC[C@]2(C(=O)O)CC[C@]3(C)[C@H](CC[C@@H]4[C@@]5(C)CC[C@H](O)C(C)(C)[C@@H]5CC[C@]43C)[C@@H]12,> 50
2,C=C(/C=C/c1ccccc1Br)[C@@H]1CC[C@]2(C(=O)O)CC[C@]3(C)[C@H](CC[C@@H]4[C@@]5(C)CC[C@H](O)C(C)(C)[C@@H]5CC[C@]43C)[C@@H]12,46.7
3,C=C(/C=C/c1ccc(Br)cc1)[C@@H]1CC[C@]2(C(=O)O)CC[C@]3(C)[C@H](CC[C@@H]4[C@@]5(C)CC[C@H](O)C(C)(C)[C@@H]5CC[C@]43C)[C@@H]12,> 50

# System: MRC5
# Assay: Cytotoxicity against human MRC5 cells assessed as reduction in cell viability measured after 72 hrs by MTS assay
# Assay type: cell-based
# Conditions: MRC5, 72 h
row,SMILES,IC50 [µM]
1,C=C(/C=C/c1ccccc1)[C@@H]1CC[C@]2(C(=O)O)CC[C@]3(C)[C@H](CC[C@@H]4[C@@]5(C)CC[C@H](O)C(C)(C)[C@@H]5CC[C@]43C)[C@@H]12,> 50
2,C=C(/C=C/c1ccccc1Br)[C@@H]1CC[C@]2(C(=O)O)CC[C@]3(C)[C@H](CC[C@@H]4[C@@]5(C)CC[C@H](O)C(C)(C)[C@@H]5CC[C@]43C)[C@@H]12,35.3
3,C=C(/C=C/c1ccc(Br)cc1)[C@@H]1CC[C@]2(C(=O)O)CC[C@]3(C)[C@H](CC[C@@H]4[C@@]5(C)CC[C@H](O)C(C)(C)[C@@H]5CC[C@]43C)[C@@H]12,35.2

# System: CEM-DNR
# Assay: Cytotoxicity against daunorubicin resistant human CEM-DNR cells assessed as reduction in cell viability measured after 72 hrs by MTS assay
# Assay type: functional, cell-based
# Conditions: not given
row,SMILES,IC50 [µM]
1,C=C(/C=C/c1ccccc1)[C@@H]1CC[C@]2(C(=O)O)CC[C@]3(C)[C@H](CC[C@@H]4[C@@]5(C)CC[C@H](O)C(C)(C)[C@@H]5CC[C@]43C)[C@@H]12,30.2
2,C=C(/C=C/c1ccccc1Br)[C@@H]1CC[C@]2(C(=O)O)CC[C@]3(C)[C@H](CC[C@@H]4[C@@]5(C)CC[C@H](O)C(C)(C)[C@@H]5CC[C@]43C)[C@@H]12,49.1
3,C=C(/C=C/c1ccc(Br)cc1)[C@@H]1CC[C@]2(C(=O)O)CC[C@]3(C)[C@H](CC[C@@H]4[C@@]5(C)CC[C@H](O)C(C)(C)[C@@H]5CC[C@]43C)[C@@H]12,28.9

# System: A549
# Assay: Cytotoxicity against human A549 cells assessed as reduction in cell viability measured after 72 hrs by MTS assay
# Assay type: functional, cell-based
# Conditions: A549, 72 h
row,SMILES,IC50 [µM]
1,C=C(/C=C/c1ccccc1)[C@@H]1CC[C@]2(C(=O)O)CC[C@]3(C)[C@H](CC[C@@H]4[C@@]5(C)CC[C@H](O)C(C)(C)[C@@H]5CC[C@]43C)[C@@H]12,41.8
2,C=C(/C=C/c1ccccc1Br)[C@@H]1CC[C@]2(C(=O)O)CC[C@]3(C)[C@H](CC[C@@H]4[C@@]5(C)CC[C@H](O)C(C)(C)[C@@H]5CC[C@]43C)[C@@H]12,28.6
3,C=C(/C=C/c1ccc(Br)cc1)[C@@H]1CC[C@]2(C(=O)O)CC[C@]3(C)[C@H](CC[C@@H]4[C@@]5(C)CC[C@H](O)C(C)(C)[C@@H]5CC[C@]43C)[C@@H]12,> 50

# System: CCRF-CEM
# Assay: Cytotoxicity against human CCRF-CEM cells assessed as reduction in cell viability measured after 72 hrs by MTS assay
# Assay type: functional, cell-based
# Conditions: not given
row,SMILES,IC50 [µM]
1,C=C(/C=C/c1ccccc1)[C@@H]1CC[C@]2(C(=O)O)CC[C@]3(C)[C@H](CC[C@@H]4[C@@]5(C)CC[C@H](O)C(C)(C)[C@@H]5CC[C@]43C)[C@@H]12,6.5
2,C=C(/C=C/c1ccccc1Br)[C@@H]1CC[C@]2(C(=O)O)CC[C@]3(C)[C@H](CC[C@@H]4[C@@]5(C)CC[C@H](O)C(C)(C)[C@@H]5CC[C@]43C)[C@@H]12,16.8
3,C=C(/C=C/c1ccc(Br)cc1)[C@@H]1CC[C@]2(C(=O)O)CC[C@]3(C)[C@H](CC[C@@H]4[C@@]5(C)CC[C@H](O)C(C)(C)[C@@H]5CC[C@]43C)[C@@H]12,6.5

# System: not listed separately
# Assay: Cytotoxicity against human HCT116 p53-null cells assessed as reduction in cell viability measured after 72 hrs by MTS assay
# Assay type: functional, cell-based
# Conditions: not given
row,SMILES,IC50 [µM]
1,C=C(/C=C/c1ccccc1)[C@@H]1CC[C@]2(C(=O)O)CC[C@]3(C)[C@H](CC[C@@H]4[C@@]5(C)CC[C@H](O)C(C)(C)[C@@H]5CC[C@]43C)[C@@H]12,39.5
2,C=C(/C=C/c1ccccc1Br)[C@@H]1CC[C@]2(C(=O)O)CC[C@]3(C)[C@H](CC[C@@H]4[C@@]5(C)CC[C@H](O)C(C)(C)[C@@H]5CC[C@]43C)[C@@H]12,24.5
3,C=C(/C=C/c1ccc(Br)cc1)[C@@H]1CC[C@]2(C(=O)O)CC[C@]3(C)[C@H](CC[C@@H]4[C@@]5(C)CC[C@H](O)C(C)(C)[C@@H]5CC[C@]43C)[C@@H]12,31.8

# System: K562
# Assay: Cytotoxicity against human K562 cells assessed as reduction in cell viability measured after 72 hrs by MTS assay
# Assay type: functional, cell-based
# Conditions: K562, 72 h
row,SMILES,IC50 [µM]
1,C=C(/C=C/c1ccccc1)[C@@H]1CC[C@]2(C(=O)O)CC[C@]3(C)[C@H](CC[C@@H]4[C@@]5(C)CC[C@H](O)C(C)(C)[C@@H]5CC[C@]43C)[C@@H]12,40
2,C=C(/C=C/c1ccccc1Br)[C@@H]1CC[C@]2(C(=O)O)CC[C@]3(C)[C@H](CC[C@@H]4[C@@]5(C)CC[C@H](O)C(C)(C)[C@@H]5CC[C@]43C)[C@@H]12,21.6
3,C=C(/C=C/c1ccc(Br)cc1)[C@@H]1CC[C@]2(C(=O)O)CC[C@]3(C)[C@H](CC[C@@H]4[C@@]5(C)CC[C@H](O)C(C)(C)[C@@H]5CC[C@]43C)[C@@H]12,> 50

# System: HCT-116
# Assay: Cytotoxicity against human HCT-116 cells assessed as reduction in cell viability measured after 72 hrs by MTS assay
# Assay type: functional, cell-based
# Conditions: HCT-116, 72 h
row,SMILES,IC50 [µM]
1,C=C(/C=C/c1ccccc1)[C@@H]1CC[C@]2(C(=O)O)CC[C@]3(C)[C@H](CC[C@@H]4[C@@]5(C)CC[C@H](O)C(C)(C)[C@@H]5CC[C@]43C)[C@@H]12,35.5
2,C=C(/C=C/c1ccccc1Br)[C@@H]1CC[C@]2(C(=O)O)CC[C@]3(C)[C@H](CC[C@@H]4[C@@]5(C)CC[C@H](O)C(C)(C)[C@@H]5CC[C@]43C)[C@@H]12,27.2
3,C=C(/C=C/c1ccc(Br)cc1)[C@@H]1CC[C@]2(C(=O)O)CC[C@]3(C)[C@H](CC[C@@H]4[C@@]5(C)CC[C@H](O)C(C)(C)[C@@H]5CC[C@]43C)[C@@H]12,33.2

# System: U2OS
# Assay: Cytotoxicity against human U2OS cells assessed as reduction in cell viability measured after 72 hrs by MTS assay
# Assay type: functional, cell-based
# Conditions: not given
row,SMILES,IC50 [µM]
1,C=C(/C=C/c1ccccc1)[C@@H]1CC[C@]2(C(=O)O)CC[C@]3(C)[C@H](CC[C@@H]4[C@@]5(C)CC[C@H](O)C(C)(C)[C@@H]5CC[C@]43C)[C@@H]12,24.2
2,C=C(/C=C/c1ccccc1Br)[C@@H]1CC[C@]2(C(=O)O)CC[C@]3(C)[C@H](CC[C@@H]4[C@@]5(C)CC[C@H](O)C(C)(C)[C@@H]5CC[C@]43C)[C@@H]12,27.8
3,C=C(/C=C/c1ccc(Br)cc1)[C@@H]1CC[C@]2(C(=O)O)CC[C@]3(C)[C@H](CC[C@@H]4[C@@]5(C)CC[C@H](O)C(C)(C)[C@@H]5CC[C@]43C)[C@@H]12,27

# System: not listed separately
# Assay: Cytotoxicity against paclitaxel resistant human K562-Tax cells assessed as reduction in cell viability measured after 72 hrs by MTS assay
# Assay type: functional, cell-based
# Conditions: not given
row,SMILES,IC50 [µM]
1,C=C(/C=C/c1ccccc1)[C@@H]1CC[C@]2(C(=O)O)CC[C@]3(C)[C@H](CC[C@@H]4[C@@]5(C)CC[C@H](O)C(C)(C)[C@@H]5CC[C@]43C)[C@@H]12,25.3
2,C=C(/C=C/c1ccccc1Br)[C@@H]1CC[C@]2(C(=O)O)CC[C@]3(C)[C@H](CC[C@@H]4[C@@]5(C)CC[C@H](O)C(C)(C)[C@@H]5CC[C@]43C)[C@@H]12,47.9
3,C=C(/C=C/c1ccc(Br)cc1)[C@@H]1CC[C@]2(C(=O)O)CC[C@]3(C)[C@H](CC[C@@H]4[C@@]5(C)CC[C@H](O)C(C)(C)[C@@H]5CC[C@]43C)[C@@H]12,29.3
